Experimental findings from patent publication US11453666B2, “Autotaxin inhibitory compounds” (Cancer Research Technology Limited, priority 2015, dated 2022) are described below.

One assay deals with human recombinant ATX (Homo sapiens, UniProt Q13822). The assay can be described thus: Autotaxin (ATX) activity Quanta Red assay. It counts as biochemical. The note with it: human recombinant ATX 0.8 μg/mL, 2 hours at room temperature, IC50 determined in duplicate; read-out: Activity (ATX activity, Quanta Red assay; IC50). An outline of the steps:
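Recombinant human ATX reaction stopped after 2 h with Quanta Red stop solution; fluorescence read at […]. Controls with DMSO, with and without ATX; IC50 in duplicate.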
With `C[C@H](NC(=O)CCc1nc2ccncc2n1Cc1ccc(OC(F)(F)F)cc1)c1ccc(Cl)cc1` [Example 122, N—[(S)-1-(4-chloro-phenyl)-ethyl]-3-[3-(4-trifluoromethoxy-benzyl)-3H-imidazo[4,5-c]pyridin-2-yl]-propionamide], the IC50 was 3 nM. Still for that read-out and setting: then `C[C@H](NC(=O)CCc1nc2ccncc2n1Cc1ccc(OC(F)(F)F)cc1)c1ccc(F)cc1` [Example 124, N-[(S)-1-(4-Fluoro-phenyl)-ethyl]-3-[3-(4-trifluoromethoxy-benzyl)-3H-imidazo[4,5-c]pyridin-2-yl]-propionamide], with 8 nM.

Staying with this assay, now noted: read-out: Activity (ATX activity, Quanta Red assay; IC50).
Consider `COc1ccc(Cn2c(CCC(=O)N(C)Cc3ccccc3)nc3cccnc32)cc1` [Example 102], for which the IC50 came out at 568 nM. Same read-out and setting: then `COc1ccc(CNC(=O)CCc2nc3cccnc3n2Cc2ccc(C)cc2)cc1` [Example 103, N-(4-Methoxy-benzyl)-3-[3-(4-methyl-benzyl)-3H-imidazo[4,5-b]pyridin-2-yl]-propionamide], with 57 nM; and `COc1ccc(Cn2c(CCC(=O)N(C)[C@@H](C)c3ccccc3)nc3cccnc32)cc1` [Example 104, 3-[3-(4-Methoxy-benzyl)-3H-imidazo[4,5-b]pyridin-2-yl]-N-methyl-N-((S)-1-phenyl-ethyl)-propionamide], with 69 nM. As to `COc1ccc(Cn2c(CCC(=O)NCc3ccc4c(ccn4C)c3)nc3cccnc32)cc1` [Example 105, 3-[3-(4-Methoxy-benzyl)-3H-imidazo[4,5-b]pyridin-2-yl]-N-(1-methyl-1H-indol-5-ylmethyl)-propionamide], the IC50 turned out to be 88 nM.

Turning to `COc1ccc(Cn2c(CCC(=O)NCc3ccccc3C)nc3cccnc32)cc1` [Example 106, 3-[3-(4-Methoxy-benzyl)-3H-imidazo[4,5-b]pyridin-2-yl]-N-(2-methyl-benzyl)-propionamide], the IC50 amounted to 98 nM. Same read-out and setting: then `COc1ccc(Cn2c(CCC(=O)NCc3ccc(F)c(F)c3)nc3cccnc32)cc1` [Example 107, N-(3,4-Difluoro-benzyl)-3-[3-(4-methoxy-benzyl)-3H-imidazo[4,5-b]pyridin-2-yl]-propionamide], with 102 nM; and `COc1ccc(Cn2c(CCC(=O)NCCc3ccc(C)cc3)nc3cccnc32)cc1` [Example 108, 3-[3-(4-Methoxy-benzyl)-3H-imidazo[4,5-b]pyridin-2-yl]-N-(2-p-tolyl-ethyl)-propionamide], with 180 nM. Same read-out and setting: then `COc1ccc(CNC(=O)CCc2nc3cc(C)cnc3n2Cc2ccc(F)cc2)cc1` [Example 109, 3-[3-(4-Fluoro-benzyl)-6-methyl-3H-imidazo[4,5-b]pyridin-2-yl]-N-(4-methoxy-benzyl)-propionamide], with 185 nM. On the same count and under the same terms, then `COc1ccc(CNC(=O)CCc2nc3cccnc3n2Cc2cccc(F)c2)cc1` [Example 110, 3-[3-(3-Fluoro-benzyl)-3H-imidazo[4,5-b]pyridin-2-yl]-N-(4-methoxy-benzyl)-propionamide], with 262 nM; and `O=C(CCc1nc2cccnc2n1Cc1ccccc1)NCC1CCCCC1` [Example 111, 3-(3-Benzyl-3H-imidazo[4,5-b]pyridin-2-yl)-N-cyclohexylmethyl-propionamide], with 406 nM. Turning to `COc1ccc(Cn2c(CCC(=O)N[C@H](C)c3ccccc3)nc3cccnc32)cc1` [Example 112, 3-[3-(4-Methoxy-benzyl)-3H-imidazo[4,5-b]pyridin-2-yl]-N-((R)-1-phenyl-ethyl)-propionamide], the IC50 was 1060 nM. The same measure, in the same setting: then `COc1ccc(Cn2c(CCC(=O)NC(C)C)nc3cccnc32)cc1` [Example 113, N-Isopropyl-3-[3-(4-methoxy-benzyl)-3H-imidazo[4,5-b]pyridin-2-yl]-propionamide], with 1500 nM. Still for that read-out and setting: the same measure for `COc1ccc(Cn2c(CCC(=O)NCc3ccccc3F)nc3cccnc32)cc1` [Example 114, N-(2-Fluoro-benzyl)-3-[3-(4-methoxy-benzyl)-3H-imidazo[4,5-b]pyridin-2-yl]-propionamide]: 301 nM; for `COc1ccc(Cn2c(CCC(=O)NCc3cccc(C)c3)nc3cccnc32)cc1` [Example 115, 3-[3-(4-Methoxy-benzyl)-3H-imidazo[4,5-b]pyridin-2-yl]-N-(3-methyl-benzyl)-propionamide]: 650 nM; for `COc1ccc(CCNC(=O)CCc2nc3cccnc3n2Cc2ccc(OC)cc2)cc1` [Example 116, 3-[3-(4-Methoxy-benzyl)-3H-imidazo[4,5-b]pyridin-2-yl]-N-[2-(4-methoxy-phenyl)-ethyl]-propionamide]: 778 nM. For the compound `COc1ccc(Cn2c(CCC(=O)NCc3cccc(F)c3)nc3cccnc32)cc1` [Example 117, N-(3-Fluoro-benzyl)-3-[3-(4-methoxy-benzyl)-3H-imidazo[4,5-b]pyridin-2-yl]-propionamide], the IC50 was 373 nM.

As for `COc1ccc(CNC(=O)CCc2nc3cccnc3n2Cc2cccc(C)c2)cc1` [Example 118, N-(4-Methoxy-benzyl)-3-[3-(3-methyl-benzyl)-3H-imidazo[4,5-b]pyridin-2-yl]-propionamide], the IC50 stood at 726 nM. On the same count and under the same terms, the same measure for `COc1ccc(Cn2c(CCC(=O)N(C)Cc3ccc(F)cc3)nc3cccnc32)cc1` [Example 119, N-(4-Fluoro-benzyl)-3-[3-(4-methoxy-benzyl)-3H-imidazo[4,5-b]pyridin-2-yl]-N-methyl-propionamide]: 631 nM; for `O=C(CCc1nc2cccnc2n1Cc1ccccc1OC(F)(F)F)NCc1ccc(OC(F)(F)F)cc1` [Example 120, N-(4-Trifluoromethoxy-benzyl)-3-[3-(2-trifluoromethoxy-benzyl)-3H-imidazo[4,5-b]pyridin-2-yl]-propionamide]: 292 nM; for `Cc1ccc2nc(CCC(=O)N[C@@H](C)c3ccc(F)cc3)n(Cc3ccc(F)cc3)c2n1` [Example 121, 3-[3-(4-fluoro-benzyl)-5-methyl-3H-imidazo[4,5-b]pyridin-2-yl]-N—[(S)-1-(4-fluoro-phenyl)-ethyl]-propionamide]: 269 nM. Regarding `O=C(CCc1nc2ccncc2n1Cc1ccc(OC(F)(F)F)cc1)N[C@@H](CO)c1ccccc1` [Example 123, N-((R)-2-Hydroxy-1-phenyl-ethyl)-3-[3-(4-trifluoromethoxy-benzyl)-3H-imidazo[4,5-c]pyridin-2-yl]-propionamide], the IC50 came out at 3 nM. On to `C[C@H](NC(=O)CCc1nc2ccncc2n1Cc1ccc(OC(F)(F)F)cc1)c1ccc(N2CCN(C)CC2)cc1` [Example 125, N-{(S)-1-[4-(4-Methyl-piperazin-1-yl)-phenyl]-ethyl}-3-[3-(4-trifluoromethoxy-benzyl)-3H-imidazo[4,5-c]pyridin-2-yl]-propionamide], for which the IC50 came out at 9 nM.

In the case of `O=C(CCc1nc2ccncc2n1Cc1ccc(OC(F)(F)F)cc1)NC(CO)c1ccc(OC(F)(F)F)cc1` (centres unmarked) [Example 126, N-[2-Hydroxy-1-(4-trifluoromethoxy-phenyl)-ethyl]-3-[3-(4-trifluoromethoxy-benzyl)-3H-imidazo[4,5-c]pyridin-2-yl]-propionamide], the IC50 turned out to be 11 nM.

For `CC[C@H](NC(=O)CCc1nc2ccncc2n1Cc1ccc(F)cc1)c1ccccc1` [Example 127, 3-[3-(4-Fluoro-benzyl)-3H-imidazo[4,5-c]pyridin-2-yl]-N-((S)-1-phenyl-propyl)-propionamide], the IC50 amounted to 14 nM.
